Measurements reported in US6969609B1 (priority 1998, dated 2005).

Tested on: BMDC
Format: cell-based, C57BL/6 mice

**Q.** What does the source list for TNF-α?
**A.** B7-1 % positive cells: 85%; B7-1 MFI: (320); B7-2 % positive cells: 71%; B7-2 MFI: (412); CD11b % positive cells: 84%; CD11b MFI: (729); CD11c % positive cells: 20%; CD11c MFI: (149); CD40 % positive cells: 65%; CD40 MFI: (159); H-2K^b/D^b % positive cells: 91%; H-2K^b/D^b MFI: (195); I-A^b % positive cells: 95%; I-A^b MFI: (1189); ICAM-1 % positive cells: 97%; ICAM-1 MFI: (421); LFA-3 % positive cells: 87%; LFA-3 MFI: (249)
